Target: T1, FAS (Mus musculus, UniProt P19096)
T1 construct: endogenous in cells; host or cells: 3T3-L1 adipocytes (treated cells, then lysed)
Assay: FAS enzyme activity of treated 3T3-L1 adipocytes
Type: cell-based
Conditions: 3T3-L1 cells, C75 25 μM, 6 days
Protocol: The influence of AIM on FAS activity of adipocyte or adipose tissue was examined. FAS activity was measured by the method of Kelley (Kelley et al., Biochem. J., 1986, 235:87-90) with slight modification. 3T3-L1 adipocytes, or lysates of adipose tissue of obese mice was mixed with acetyl-CoA and NADPH (0.2 M […] phosphate buffer [pH 7.0] containing 0.4 mM EDTA), and the mixture was placed in a spectrophotometer cuvette and maintained at 30° C. 20 μl of malonyl-CoA solution (0.2 mM) was added to start an enzyme reaction and decrease of OD was measured at a chart speed 2 cm/min. Based on the results, the enzyme activity of FAS was evaluated using the molar extinction coefficient of […] NADPH as 6220.
First, the FAS activity of 3T3-L1 cells treated for 6 days in the presence or absence of rAIM (5 μg/ml), and in the presence of C75 (25 μM) was measured. Moreover, the FAS activity of adipose tissues of AIM^+/+ mice and AIM^−/− mice and the FAS activity of adipose tissue of AIM^−/− mice administered with rAIM or BSA 3 hr before by intraadipose topical injection are shown in FIGS. 28 and 29, respectively.
All mice were fed with HFD for 20 weeks. The samples were dissolved (lysed) and the FAS activity was measured. The data was converted to that based on FAS protein, according to the results of WB performed using the same sample.

T1 sequence (P19096 whole entry): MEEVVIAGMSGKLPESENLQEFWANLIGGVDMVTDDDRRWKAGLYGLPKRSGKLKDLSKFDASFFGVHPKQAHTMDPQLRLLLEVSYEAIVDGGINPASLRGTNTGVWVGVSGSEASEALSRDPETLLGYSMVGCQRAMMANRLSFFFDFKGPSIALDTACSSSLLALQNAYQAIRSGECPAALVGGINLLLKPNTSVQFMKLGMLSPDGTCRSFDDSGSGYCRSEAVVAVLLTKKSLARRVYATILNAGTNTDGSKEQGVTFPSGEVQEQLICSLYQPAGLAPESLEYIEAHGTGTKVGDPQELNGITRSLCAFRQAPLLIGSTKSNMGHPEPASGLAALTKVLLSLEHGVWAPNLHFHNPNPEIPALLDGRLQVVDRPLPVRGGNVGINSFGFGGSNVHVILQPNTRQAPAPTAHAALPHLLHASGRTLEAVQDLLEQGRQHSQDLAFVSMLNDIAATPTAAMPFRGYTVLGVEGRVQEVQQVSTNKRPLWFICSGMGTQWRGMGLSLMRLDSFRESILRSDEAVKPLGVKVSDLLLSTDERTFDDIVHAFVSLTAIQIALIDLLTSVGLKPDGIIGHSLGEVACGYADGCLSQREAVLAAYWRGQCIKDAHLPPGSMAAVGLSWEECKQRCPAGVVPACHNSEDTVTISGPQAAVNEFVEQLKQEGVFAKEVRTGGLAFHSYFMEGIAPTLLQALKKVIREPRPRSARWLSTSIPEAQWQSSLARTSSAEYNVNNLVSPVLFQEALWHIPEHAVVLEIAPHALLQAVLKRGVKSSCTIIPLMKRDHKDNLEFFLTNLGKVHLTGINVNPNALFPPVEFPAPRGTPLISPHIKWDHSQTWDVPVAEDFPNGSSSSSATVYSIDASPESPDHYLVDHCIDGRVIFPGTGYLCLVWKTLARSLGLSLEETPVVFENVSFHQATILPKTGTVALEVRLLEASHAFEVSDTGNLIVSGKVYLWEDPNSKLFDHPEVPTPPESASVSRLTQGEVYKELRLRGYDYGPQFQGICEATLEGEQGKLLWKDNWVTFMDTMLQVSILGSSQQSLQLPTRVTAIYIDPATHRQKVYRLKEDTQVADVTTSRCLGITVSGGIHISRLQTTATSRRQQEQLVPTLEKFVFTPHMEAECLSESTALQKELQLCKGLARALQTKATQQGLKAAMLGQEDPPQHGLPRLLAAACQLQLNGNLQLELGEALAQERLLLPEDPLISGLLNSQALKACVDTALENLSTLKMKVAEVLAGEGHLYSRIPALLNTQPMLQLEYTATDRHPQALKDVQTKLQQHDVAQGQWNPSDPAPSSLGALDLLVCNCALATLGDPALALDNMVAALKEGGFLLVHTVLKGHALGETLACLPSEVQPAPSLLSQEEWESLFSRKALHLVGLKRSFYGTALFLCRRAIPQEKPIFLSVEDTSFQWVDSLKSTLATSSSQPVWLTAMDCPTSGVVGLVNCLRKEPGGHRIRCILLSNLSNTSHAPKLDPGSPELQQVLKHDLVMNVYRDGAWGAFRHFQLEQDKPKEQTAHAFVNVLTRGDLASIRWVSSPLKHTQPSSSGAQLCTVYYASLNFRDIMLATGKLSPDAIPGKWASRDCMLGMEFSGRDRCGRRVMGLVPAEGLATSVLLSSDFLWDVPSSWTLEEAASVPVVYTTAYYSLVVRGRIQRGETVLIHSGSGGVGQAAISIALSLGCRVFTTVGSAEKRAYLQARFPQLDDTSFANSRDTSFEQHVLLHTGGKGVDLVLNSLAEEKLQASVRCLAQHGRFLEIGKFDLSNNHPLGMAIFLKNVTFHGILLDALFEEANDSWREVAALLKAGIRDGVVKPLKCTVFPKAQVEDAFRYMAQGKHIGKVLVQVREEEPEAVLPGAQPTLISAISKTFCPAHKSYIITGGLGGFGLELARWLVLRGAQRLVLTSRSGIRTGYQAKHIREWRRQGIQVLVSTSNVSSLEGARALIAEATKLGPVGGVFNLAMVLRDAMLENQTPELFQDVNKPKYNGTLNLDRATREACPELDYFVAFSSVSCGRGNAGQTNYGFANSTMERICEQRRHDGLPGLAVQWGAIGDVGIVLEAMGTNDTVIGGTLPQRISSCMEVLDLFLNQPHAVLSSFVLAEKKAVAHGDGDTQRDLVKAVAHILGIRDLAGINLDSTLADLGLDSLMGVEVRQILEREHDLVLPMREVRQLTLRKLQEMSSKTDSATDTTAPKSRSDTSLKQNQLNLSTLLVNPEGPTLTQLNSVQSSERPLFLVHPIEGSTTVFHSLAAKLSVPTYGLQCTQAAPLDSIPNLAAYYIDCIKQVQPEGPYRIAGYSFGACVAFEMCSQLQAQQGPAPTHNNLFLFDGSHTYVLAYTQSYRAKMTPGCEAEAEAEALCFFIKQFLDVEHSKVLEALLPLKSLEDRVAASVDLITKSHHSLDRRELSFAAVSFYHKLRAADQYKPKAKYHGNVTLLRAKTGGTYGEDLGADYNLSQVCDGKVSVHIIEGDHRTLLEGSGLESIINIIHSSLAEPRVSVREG

SMILES: C=C1C(=O)OC(CCCCCCCC)C1C(=O)O (stereo not shown) [C75, reference compound]
- FAS activity, level of suppression compared with rAIM: the same

Source: patent US20130115220A1, “METHOD FOR PREVENTION OR TREATMENT OF METABOLIC SYNDROME” (DAINIPPON SUMITOMO PHARMA CO., LTD., priority 2010, published 2013)
